In BindingDB's records for doi:10.1021/jm049651m (Uppsala University, 2004):
Bridge positions count the residues as written; N and C are the ends. Square brackets hold non-standard residues; d marks the D form. Peptide text beside a SMILES is read from it. hCys = N[C@@H](CCS)C(=O)O

Biological target: Type-2 angiotensin II receptor (Sus scrofa)
Assay: Displacement of [125I]-Ang II from pig uterus myometrium angiotensin II type 2 (AT2) receptor

Ki: 2.1 nM
Compound: NC(N)=NCCC[C@H](NC(=O)[C@@H](N)CC(=O)O)C(=O)N[C@H]1CCSSCC[C@@H](C(=O)N[C@@H](Cc2c[nH]cn2)C(=O)N2CCC[C@H]2C(=O)N[C@@H](Cc2ccccc2)C(=O)O)NC(=O)[C@H](Cc2ccc(O)cc2)NC1=O [c[Hcy3,5]Ang II] (H-DR[hCys]Y[hCys]HPF-OH; disulfide 3-5)
